Holding throughout (format): cell-based
For assay [1], the system named is Escherichia coli. Briefly: in vitro antibacterial activity. To be noted: commonly employed in vitro techniques. The source says: (§1) It is particularly inimical to Proteus mirabilis and Escherichia coli at levels of 1.4 to 5.5×10^-5 molar in commonly employed in vitro techniques for determining antibacterial activity.
The subject of assay [2] is Proteus mirabilis. As to the kind of experiment: in vitro antibacterial activity. The settings on record: commonly employed in vitro techniques.
Excerpt: as §1

The target of assay [3] is T1, urease of intact Proteus mirabilis cells (Proteus mirabilis, UniProt P17086).
T1 construct: using intact Proteus mirabilis cells as the source of urease; endogenous in cells
Briefly: anti-urease potency using intact Proteus mirabilis cells as the source of urease. To be noted: 40 minutes preincubation, pH 8.0, ammonia formed in five minutes after addition of urea; read-out: concentration evincing a 50% inhibition of the urease of intact Proteus mirabilis cells. Here is the method: The anti-urease potency of the compound of this invention was determined using intact Proteus mirabilis cells as the source of urease. Compounds were preincubated with Proteus mirabilis cells suspended in a saline solution (0.1 molar) buffered with 0.1 molar tris(hydroxymethyl)aminomethane (pH 8.0). After 40 minutes preincubation, the remaining urease activity was determined by collecting the ammonia formed in five minutes after the addition of the substrate, urea. Ammonia assays were carried out according to the procedure of Seligson and Seligson [J. Lab. Clin. Med. 38, 324-330 (1951)]. Percent inhibition was calculated by comparing the amount of ammonia generated by cells preincubated with 3-[[(4-aminophenyl)sulfonyl]amino]-N-[diaminophosphinyl]-benzamide with the controls, in which preincubation was carried out in the absence of compound.

T1 sequence (P17086 whole entry): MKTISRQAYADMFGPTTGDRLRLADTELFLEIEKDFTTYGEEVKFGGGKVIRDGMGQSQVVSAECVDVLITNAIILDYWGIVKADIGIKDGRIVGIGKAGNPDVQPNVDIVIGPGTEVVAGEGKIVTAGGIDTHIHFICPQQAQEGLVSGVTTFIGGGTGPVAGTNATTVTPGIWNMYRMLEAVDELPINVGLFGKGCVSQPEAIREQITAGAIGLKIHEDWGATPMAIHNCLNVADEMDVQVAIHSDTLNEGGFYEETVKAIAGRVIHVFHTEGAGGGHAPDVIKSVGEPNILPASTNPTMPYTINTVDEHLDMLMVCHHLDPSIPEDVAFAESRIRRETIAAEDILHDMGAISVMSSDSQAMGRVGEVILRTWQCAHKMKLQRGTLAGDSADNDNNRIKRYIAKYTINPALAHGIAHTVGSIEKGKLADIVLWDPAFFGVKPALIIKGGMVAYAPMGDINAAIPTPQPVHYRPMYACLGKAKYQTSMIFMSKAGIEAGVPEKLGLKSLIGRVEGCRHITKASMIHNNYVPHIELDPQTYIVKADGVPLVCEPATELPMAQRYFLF

Consider `Nc1ccc(S(=O)(=O)Nc2cccc(C(=O)NP(N)(N)=O)c2)cc1` [3-[[(4-aminophenyl)sulfonyl]amino]-N-[diaminophosphinyl]-benzamide], for which the “antibacterial activity level (inimical concentration)” value in assay [1] and in assay [2] was 1.4 to 5.5×10^-5 molar in each case. Besides, in assay [3], the IC50 was 2000 nM.

Source of the values: patent publication US4221730A, “3-[[(4-Aminophenyl)sulfonyl]amino]-N-[diaminophosphinyl]-benzamide” (Morton-Norwich Products, Inc., priority 1979, dated 1980).
